Measurements: patent publication US5374772A, “Substituted benzoic acids, inhibitors of phospholipases A2” (Hoffmann-LaRoche Inc., priority 1993, dated 1994)
Counter-ions that a name gives are not always drawn.

Columns and labels:
[1] = target: T1, HSF-PLA2 (extracellular PLA2 obtained from human synovial fluid) (Homo sapiens, UniProt P14555); assay: Assay for Inhibition of HSF-PLA2 In Vitro; assay type: biochemical; details: for inhibition at 10 µM: read-out: % Inhib of HSF-PLA2
T1 construct: extracellular enzyme obtained from human synovial fluid; from tissue; host or cells: pooled human synovial fluid (0.1% v/v in the assay)
T1 sequence (P14555 21-144): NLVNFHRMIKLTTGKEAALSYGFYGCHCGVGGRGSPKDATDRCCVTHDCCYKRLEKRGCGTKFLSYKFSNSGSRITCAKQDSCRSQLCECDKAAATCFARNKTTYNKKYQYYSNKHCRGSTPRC
Protocol: The PLA2 used in this test is the extracellular enzyme obtained from human synovial fluid (HSF-PLA2). The assay for HSF-PLA2 activity was a modification of the described method [Franson R., Dobrow R., Weiss, J., Elsbach P., and […]. Lipid Res., 19, 18-23 (1978)] which was conducted using [1-^14 C]-oleate-labelled E. coli substrate in excess at a final concentration of 20,000 dpm/ml. This was equivalent to 18.2 mM of cell membrane phospholipid phosphorus and 2×10^9 autoclaved E. coli/ml. The optimal conditions which were developed for the assay of HSF-PLA2 inhibitors are summarized as follows. […] The reaction was terminated by the addition of 2.5 ml of chloroform-methanol (1 to 1.5, v/v). The extraction of lipids from the stopped reaction mixture was conducted by the further additions of 0.5 ml of chloroform and 1 ml of water with mixing. […] The extracted lipid residue was redissolved in […] of a solution containing carrier oleic acid (0.2 mg/ml) of […]]). […] This TLC system rapidly (6 minutes) resolved the enzymatically released product, ^14 C-oleic acid, from the unreacted ^14 C-phospholipid substrate. The unsaturated lipids were located on the chromatogram by a brief exposure to iodine vapor. The oleic acid zone (Rf value 0.95) and phospholipid zone (origin) were cut out, chopped into small pieces, shaken with 2 ml of ethanol-water (80 to 20, v/v) and 15 ml of Aquasol and counted for radioactivity. A control incubation of substrate in the absence of HSF-PLA2 was performed in each experiment. The PLA2 activity of the human synovial fluid was corrected for this small control value. […] The specific activity of PLA2 in the pooled human synovial fluid under the optimal assay conditions was 49.2 nmoles [1-^14 C]-oleic acid released hour^-1 mg^-1. The IC50 (μM concentration of test compound that produces 50% inhibition of PLA2 activity) was determined for each test compound.

[2] = test system: TPA-induced mouse ear edema; assay: TPA Induced Mouse Ear Edema Test (ear punch weight); assay type: in vivo, male CD-1 mice; details: 30 minutes prior to TPA, ear punch weight at 6 hours; for inhibition in vivo at 1 mg / inhibition in vivo at 0.3 mg: Mus musculus; for inhibition in vivo at 1 mg: 1 mg topical, read-out: % Inhib of TPA Mouse Ear Edema (1 mg); for inhibition in vivo at 0.3 mg: 0.3 mg topical, read-out: % Inhib of TPA Mouse Ear Edema (0.3 mg)
Protocol: The TPA-induced mouse ear edema test, a model of irritant-induced contact dermatitis is described in the following reference: J. M. Young, B. M. Wagner and […]. Invest. Dermatology 80, 48-52 (1983). For this test, 10 μl of 12-O-tetradecanoylphorbol-13-acetate (TPA), dissolved in a vehicle of pyridine: water: diethyl ether (20:5:75), was applied to the outside of the right ear of 3-4 week old male CD-1 mice (8 animals per group). The test compounds were dissolved in the same vehicle and 10 μl was applied to the inside of the same ear 30 minutes prior to the application of TPA. Ear punches (6 mm) were removed at 6 hours after TPA application, weighed and assayed for myeloperoxidase (MPO) activity as described in the following reference: P. P. Bradley, […]. Christensen and G. Rothstein, J. Invest. Dermatology 78, 206-209 (1982). The wet weight of the ear biopsy punches is a measure of the ear edema and the level of MPO activity in the ear punches is an indicator of neutrophil infiltration. The data are expressed as percent inhibition of drug-[…] relative to the control group.

| inhibition at 10 µM [1] | SMILES | inhibition in vivo at 1 mg [2] | also measured |
| --- | --- | --- | --- |
| 67% | O=C(O)c1cc(OCCOc2cccc3ccccc23)cc(OCCOc2cccc3ccccc23)c1 [Example 8A, 3,5-bis[2-(1-naphthalenyloxy)ethoxy]benzoic acid] |  |  |
| 77% | CCCCCCCCCCCCCCCCCCOc1cc(OCCOc2ccc3ccccc3c2)cc(C(=O)O)c1 [Example 15, 3-[2-(2-Naphthalenyloxy)ethoxy]-5-(octadecyloxy) benzoic acid] |  |  |
| 87% | CCCCCCCCCCCCCCOc1cc(OCCCOc2ccc(OCc3ccccc3)cc2)cc(C(=O)O)c1 [Example 36, 3-[3-[4-(Phenylmethoxy)phenoxy]propoxy]-5-(tetradecyloxy)benzoic acid] | 52% |  |
| 61% | CCCCCCCCCCOc1cc(OCCCOc2ccc(OCc3ccccc3)cc2)cc(C(=O)O)c1 [Example 39, 3-(Decyloxy)-5-[3-[4-(phenylmethoxy)phenoxy]propoxy]benzoic acid] |  |  |
| 54% | O=C(O)c1cc(OCCCOc2ccc(OCc3ccccc3)cc2)cc(OCCCOc2ccc(OCc3ccccc3)cc2)c1 [Example 41, 3,5-bis[3-[4-(Phenylmethoxy)phenoxy]propoxy]benzoic acid] | 54% |  |
| 5% | O=C(O)c1cc(OCCCOc2ccc(O)cc2)cc(OCCCOc2ccc(O)cc2)c1 [Example 42, 3,5-bis[3-(4-Hydroxyphenoxy)propoxy]benzoic acid] | 43% |  |
| 91% | CCCCCCCCCCCCCCCCCCOc1cc(OCCCOc2ccccc2O)cc(C(=O)O)c1 [Example 46, 3-[3-(2-Hydroxyphenoxy)propoxy]-5-(octadecyloxy) benzoic acid] |  | inhibition in vivo at 0.3 mg [2]: 47% |

Further lines, the compound ahead of its results:

| SMILES | inhibition at 10 µM [1] | inhibition in vivo at 1 mg [2] | also measured |
| --- | --- | --- | --- |
| O=C(O)c1cc(OCCCOc2ccc(-c3ccccc3)cc2)cc(OCCCOc2ccc(-c3ccccc3)cc2)c1 [Example 6, 3,5-bis[3-(1,1'-Biphenyl-4-yloxy)propoxy]benzoic acid] |  |  | IC50 ([1]; given as 50 % inhibition at the given concentration, 14C-oleate-labelled E. coli substrate, pH 7.3, 37° C., 30 minutes, read-out: % Inhib of HSF-PLA2: 50 (concentration) = IC50 (μM concentration that produces 50% inhibition of PLA2 activity)): 3 µM |
| CCCCCCCCCCCCCCCCCCOc1cc(OCCCOc2ccc([S+](C)[O-])cc2)cc(C(=O)O)c1 (centres unmarked) [Example 24, 3-[3-[4-(Methylsulfinyl)phenoxy]propoxy]-5-(octadecyloxy)benzoic acid] | 72% | 43% |  |
| CCCCCCCCCCCCCCCCCCOc1cc(OCCCOc2ccc(S(C)(=O)=O)cc2)cc(C(=O)O)c1 [Example 26, 3-[3-[4-(Methylsulfonyl)phenoxy]propoxy]-5-(octadecyloxy)benzoic acid] | 86% | 42% |  |
| CCCCCCCCCCCCCCCCCCOc1cc(OCCCOc2ccc(O)cc2)cc(C(=O)OC)c1 [Example 34, 3-[3-(4-Hydroxyphenoxy)propoxy]-5-(octadecyloxy) benzoic acid methyl ester] | 2% | 42% |  |
| CCCCCCCCCCCCCCOc1cc(OCCCOc2ccc(O)cc2)cc(C(=O)O)c1 [Example 37, 3-[3-(4-Hydroxyphenoxy)propoxy]-5-(tetradecyloxy) benzoic acid] | 75% | 57% |  |
| CCCCCCCCCCCCCCCCCCOc1cc(OCCCCCCOc2ccc(O)cc2)cc(C(=O)O)c1 [Example 44] | 94% | 46% |  |
| CCCCCCCCCCCCCCCCCCOc1ccc(OCCCOc2ccc(OCc3ccccc3)cc2)c(C(=O)O)c1 [Example 49, 5-(Octadecyloxy)-2-[3-[4-(phenylmethoxy)phenoxy]propoxy]benzoic acid] | 79% |  | inhibition in vivo at 0.3 mg [2]: 27% |
| CCCCCCCCCCOc1cc(OCCCCCCc2cccc(O)c2O)cc(C(=O)OCCN(CC)CC)c1 [Example 71, 3-(Decyloxy)-5-[[6-(2,3-dihydroxyphenyl)hexyl]oxy]benzoic acid 2-(diethylamino)ethyl ester monohydrochloride salt] |  | 57% |  |
| CCCCCCCCCCOc1cc(OCCCCCCc2cccc(O)c2O)cc(C(=O)OCOC(C)=O)c1 [Example 72, 3-(Decyloxy)-5-[[6-(2,3-dihydroxyphenyl)hexyl]oxy]benzoic acid (acetyloxy)methyl ester] |  |  | % Inhib of TPA Mouse Ear Edema (0.1 mg) ([2]; 0.1 mg topical): 52% |
